Calls of active or inactive are those of the source. No cut-off for these calls is given here.
Assays:
[1] = tested on: HeLa; test: Cytotoxicity against human HeLa cells assessed as cell viability at 120 uM after 3 days by CellTiter96 Aqueous One Solution assay; assay type: functional, cell-based
[2] = tested on: HeLa; test: Cytotoxicity against human HeLa cells assessed as cell viability at 120 uM after 3 days by CellTiter96 Aqueous One Solution assay (reference value: 100%); assay type: functional; details: 72 h, read-out: Activity
[3] = tested on: HeLa; test: Effect on apoptosis in human HeLa cells assessed as cell morphology and extracellular membrane after 48 hrs; assay type: functional, cell-based
[4] = biological target: T1, ATP-dependent translocase ABCB1 (Homo sapiens, UniProt P08183); test: Inhibition of human P-glycoprotein 1 ATPase activity assessed as remaining ATP level by luminescence analysis
T1 sequence (P08183 whole entry): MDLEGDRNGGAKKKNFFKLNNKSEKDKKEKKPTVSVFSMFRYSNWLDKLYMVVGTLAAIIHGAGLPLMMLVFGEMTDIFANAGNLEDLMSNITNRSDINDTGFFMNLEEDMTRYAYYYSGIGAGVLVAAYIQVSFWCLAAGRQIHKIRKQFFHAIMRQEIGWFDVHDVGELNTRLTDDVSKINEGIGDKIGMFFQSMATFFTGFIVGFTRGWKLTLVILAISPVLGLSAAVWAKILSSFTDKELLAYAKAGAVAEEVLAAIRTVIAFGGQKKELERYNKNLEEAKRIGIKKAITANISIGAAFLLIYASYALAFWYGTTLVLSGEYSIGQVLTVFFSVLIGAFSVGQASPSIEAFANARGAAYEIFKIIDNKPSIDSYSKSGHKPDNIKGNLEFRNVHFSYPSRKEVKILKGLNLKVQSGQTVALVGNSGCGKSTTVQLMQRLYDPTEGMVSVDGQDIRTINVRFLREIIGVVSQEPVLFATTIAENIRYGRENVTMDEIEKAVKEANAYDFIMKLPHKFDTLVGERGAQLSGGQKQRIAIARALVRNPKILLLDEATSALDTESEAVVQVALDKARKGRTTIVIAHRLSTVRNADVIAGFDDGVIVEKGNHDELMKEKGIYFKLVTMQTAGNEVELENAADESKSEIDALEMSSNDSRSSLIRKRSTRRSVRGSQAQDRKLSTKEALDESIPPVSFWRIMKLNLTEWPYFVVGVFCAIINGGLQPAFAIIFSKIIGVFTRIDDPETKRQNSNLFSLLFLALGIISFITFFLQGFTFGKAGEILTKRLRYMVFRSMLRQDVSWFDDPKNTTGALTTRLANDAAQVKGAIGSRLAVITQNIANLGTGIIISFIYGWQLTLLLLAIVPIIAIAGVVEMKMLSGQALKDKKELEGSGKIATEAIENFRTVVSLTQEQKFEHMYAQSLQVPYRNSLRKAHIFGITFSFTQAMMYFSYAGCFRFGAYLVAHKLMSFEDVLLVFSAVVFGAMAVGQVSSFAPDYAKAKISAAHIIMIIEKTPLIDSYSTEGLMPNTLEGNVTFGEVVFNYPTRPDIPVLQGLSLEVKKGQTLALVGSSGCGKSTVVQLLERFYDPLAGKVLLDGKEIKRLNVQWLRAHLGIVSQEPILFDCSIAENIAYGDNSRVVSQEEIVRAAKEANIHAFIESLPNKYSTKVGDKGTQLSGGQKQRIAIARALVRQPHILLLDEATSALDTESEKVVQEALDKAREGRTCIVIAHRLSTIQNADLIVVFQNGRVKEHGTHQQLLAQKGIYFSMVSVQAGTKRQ

[5] = biological target: T1, ATP-dependent translocase ABCB1; test: Inhibition of P-glycoprotein 1 in human HeLa cells assessed as intracellular accumulation of Hoechst 33342 dye after 30 mins by fluorescence microscopic analysis; assay type: cell-based
[6] = biological target: T2, DNA topoisomerase 1 (Homo sapiens, UniProt P11387); test: Inhibition of human topoisomerase 1 activity assessed as DNA triplex formation and presence of supercoiled DNA by microplate assay
T2 sequence (P11387 whole entry): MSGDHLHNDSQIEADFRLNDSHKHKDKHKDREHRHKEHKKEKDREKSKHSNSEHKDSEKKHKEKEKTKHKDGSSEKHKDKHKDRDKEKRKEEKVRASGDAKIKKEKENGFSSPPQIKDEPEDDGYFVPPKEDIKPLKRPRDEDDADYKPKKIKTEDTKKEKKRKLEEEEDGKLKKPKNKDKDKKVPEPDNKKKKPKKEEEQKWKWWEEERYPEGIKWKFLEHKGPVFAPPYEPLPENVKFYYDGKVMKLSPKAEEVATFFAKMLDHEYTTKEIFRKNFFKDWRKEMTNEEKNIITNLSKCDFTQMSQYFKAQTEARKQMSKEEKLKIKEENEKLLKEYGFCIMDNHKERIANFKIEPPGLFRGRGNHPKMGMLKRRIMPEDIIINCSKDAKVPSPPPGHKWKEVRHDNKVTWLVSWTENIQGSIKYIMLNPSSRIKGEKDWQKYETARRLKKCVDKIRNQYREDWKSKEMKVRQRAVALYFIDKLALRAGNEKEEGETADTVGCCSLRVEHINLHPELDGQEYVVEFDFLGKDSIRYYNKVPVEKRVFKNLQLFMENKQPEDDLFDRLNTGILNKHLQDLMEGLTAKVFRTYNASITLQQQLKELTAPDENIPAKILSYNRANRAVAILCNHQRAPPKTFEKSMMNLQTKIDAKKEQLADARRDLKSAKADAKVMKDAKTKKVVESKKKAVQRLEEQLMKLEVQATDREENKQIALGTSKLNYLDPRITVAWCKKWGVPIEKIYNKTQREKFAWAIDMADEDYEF

[7] = tested on: Escherichia coli; test: Inhibition of Escherichia coli topoisomerase assessed as bacterial proliferation at 200 uM after 24 hrs by visual inspection assay

## CC(=O)OCC(OC(C)=O)C(OC(C)=O)C(O)C1SCC(C(=O)N(C)C)N1C(C)=O (centres undefined)
[1]
  Activity: inactive

## O=c1c(-c2ccc3c(c2)OCCO3)coc2cc(OC3OC(CO)C(O)C(O)C3O)ccc12 (centres undefined)
[2]
  viability at 120 µM: 82%

## CC(=O)OC[C@H](OC(C)=O)[C@H](OC(C)=O)[C@@H](CNC(=O)c1ccc(C)c(C)c1)OC(C)=O
[1]
  Activity: inactive
[3]
  Activity: inactive
[4]
  IC50: 28 µM
[5]
  IC50: 15.5 µM

## CC(=O)c1ccc(OCC(O)CN2CCN(C(c3ccccc3)c3ccccc3)CC2)cc1 (centres undefined)
[2]
  viability at 120 µM: 37%

## CN(C=C(C#N)C#N)CC(O)C(O)C(O)C(O)CO (centres undefined)
[1]
  Activity: inactive
[6]
  IC50: 47.5 µM
[7]
  inhibition: inactive

## CC(=O)OCC1OC(Sc2ccccc2)C(OC(C)=O)C(OC(C)=O)C1OC(C)=O (centres undefined)
[3]
  Activity: inactive
[2]
  viability at 120 µM: 87%
[4]
  IC50: 37 µM
[5]
  IC50: 15.4 µM

## CC(=O)OCC(OC(C)=O)C(OC(C)=O)C(OC(C)=O)C(OC(C)=O)C(OC(C)=O)OC(C)=O (centres undefined)
[1]
  Activity: inactive

## CCSC(SCC)C(O)C(O)C(O)C(O)CO (centres undefined)
[1]
  Activity: inactive

## NC(=O)c1ncn([C@@H]2O[C@H](CO)[C@@H](O)[C@H]2O)n1 [RIBAVIRIN]
[6]
  IC50: 65.9 µM
[7]
  inhibition: inactive

## CO[C@@H]1O[C@H](CO)[C@H](O)[C@H](O)[C@H]1O
[1]
  Activity: inactive
